From PubChem BioAssay (NCI)
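The compound was tested at five concentrations on cells cultured in 96-well plates, with a 48-hour exposure period. Definition used: TGI = concentration required for complete inhibition of growth.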

What was measured:
Assay in all cases: DTP human tumour cell line panel, 48 h
786-0 renal = tested on: 786-0 renal
A498 renal = tested on: A498 renal
A549 NSCLC = tested on: A549 NSCLC
ACHN renal = tested on: ACHN renal
BT-549 breast = tested on: BT-549 breast
CAKI-1 renal = tested on: CAKI-1 renal
CCRF-CEM leukemia = tested on: CCRF-CEM leukemia
COLO 205 colon = tested on: COLO 205 colon
DU-145 prostate = tested on: DU-145 prostate
EKVX NSCLC = tested on: EKVX NSCLC
HCC-2998 colon = tested on: HCC-2998 colon
HCT-116 colon = tested on: HCT-116 colon
HCT-15 colon = tested on: HCT-15 colon
HL-60(TB) leukemia = tested on: HL-60(TB) leukemia
HOP-62 NSCLC = tested on: HOP-62 NSCLC
HOP-92 NSCLC = tested on: HOP-92 NSCLC
HS 578T breast = tested on: HS 578T breast
HT29 colon = tested on: HT29 colon
IGROV1 ovarian = tested on: IGROV1 ovarian
K-562 leukemia = tested on: K-562 leukemia
KM12 colon = tested on: KM12 colon
LOX IMVI melanoma = tested on: LOX IMVI melanoma
M14 melanoma = tested on: M14 melanoma
MALME-3M melanoma = tested on: MALME-3M melanoma
MCF7 breast = tested on: MCF7 breast
MDA-MB-231 breast = tested on: MDA-MB-231 breast
MDA-MB-435 = tested on: MDA-MB-435
MDA-N = tested on: MDA-N
MOLT-4 leukemia = tested on: MOLT-4 leukemia
NCI-H226 lung = tested on: NCI-H226 lung
NCI-H23 lung = tested on: NCI-H23 lung
NCI-H460 lung = tested on: NCI-H460 lung
NCI-H522 lung = tested on: NCI-H522 lung
NCI/ADR-RES ovarian = tested on: NCI/ADR-RES ovarian
OVCAR-3 ovarian = tested on: OVCAR-3 ovarian
OVCAR-4 ovarian = tested on: OVCAR-4 ovarian
OVCAR-5 ovarian = tested on: OVCAR-5 ovarian
OVCAR-8 ovarian = tested on: OVCAR-8 ovarian
PC-3 prostate = tested on: PC-3 prostate
RPMI-8226 leukemia = tested on: RPMI-8226 leukemia
RXF 393 renal = tested on: RXF 393 renal
SF-268 CNS = tested on: SF-268 CNS
SF-295 CNS = tested on: SF-295 CNS
SF-539 CNS = tested on: SF-539 CNS
SK-MEL-2 melanoma = tested on: SK-MEL-2 melanoma
SK-MEL-28 melanoma = tested on: SK-MEL-28 melanoma
SK-MEL-5 melanoma = tested on: SK-MEL-5 melanoma
SK-OV-3 ovarian = tested on: SK-OV-3 ovarian
SN12C renal = tested on: SN12C renal
SNB-19 CNS = tested on: SNB-19 CNS
SNB-75 CNS = tested on: SNB-75 CNS
SR leukemia = tested on: SR leukemia
SW-620 colon = tested on: SW-620 colon
T-47D breast = tested on: T-47D breast
TK-10 renal = tested on: TK-10 renal
U251 CNS = tested on: U251 CNS
UACC-257 melanoma = tested on: UACC-257 melanoma
UACC-62 melanoma = tested on: UACC-62 melanoma

## COc1ccc(-c2cc(=O)c3ccc(O)cc3o2)cc1OC
786-0 renal
  TGI: > 100 µM
A498 renal
  TGI: > 100 µM
A549 NSCLC
  TGI: > 100 µM
ACHN renal
  TGI: > 100 µM
BT-549 breast
  TGI: > 100 µM
CAKI-1 renal
  TGI: > 100 µM
CCRF-CEM leukemia
  TGI: > 100 µM
COLO 205 colon
  TGI: > 100 µM
DU-145 prostate
  TGI: > 100 µM
EKVX NSCLC
  TGI: > 100 µM
HCC-2998 colon
  TGI: > 100 µM
HCT-116 colon
  TGI: > 100 µM
HCT-15 colon
  TGI: > 100 µM
HL-60(TB) leukemia
  TGI: > 100 µM
HOP-62 NSCLC
  TGI: > 100 µM
HOP-92 NSCLC
  TGI: > 100 µM
HS 578T breast
  TGI: > 100 µM
HT29 colon
  TGI: > 100 µM
IGROV1 ovarian
  TGI: > 100 µM
K-562 leukemia
  TGI: > 100 µM
KM12 colon
  TGI: > 100 µM
LOX IMVI melanoma
  TGI: > 100 µM
M14 melanoma
  TGI: > 100 µM
MALME-3M melanoma
  TGI: > 100 µM
MCF7 breast
  TGI: > 100 µM
MDA-MB-231 breast
  TGI: > 100 µM
MDA-MB-435
  TGI: > 100 µM
MDA-N
  TGI: > 100 µM
MOLT-4 leukemia
  TGI: > 100 µM
NCI-H226 lung
  TGI: > 100 µM
NCI-H23 lung
  TGI: > 100 µM
NCI-H460 lung
  TGI: > 100 µM
NCI-H522 lung
  TGI: > 100 µM
NCI/ADR-RES ovarian
  TGI: > 100 µM
OVCAR-3 ovarian
  TGI: > 100 µM
OVCAR-4 ovarian
  TGI: > 100 µM
OVCAR-5 ovarian
  TGI: > 100 µM
OVCAR-8 ovarian
  TGI: > 100 µM
PC-3 prostate
  TGI: > 100 µM
RPMI-8226 leukemia
  TGI: > 100 µM
RXF 393 renal
  TGI: 38.6 µM
SF-268 CNS
  TGI: > 100 µM
SF-295 CNS
  TGI: > 100 µM
SF-539 CNS
  TGI: > 100 µM
SK-MEL-2 melanoma
  TGI: > 100 µM
SK-MEL-28 melanoma
  TGI: > 100 µM
SK-MEL-5 melanoma
  TGI: 41.8 µM
SK-OV-3 ovarian
  TGI: > 100 µM
SN12C renal
  TGI: > 100 µM
SNB-19 CNS
  TGI: > 100 µM
SNB-75 CNS
  TGI: > 100 µM
SR leukemia
  TGI: > 100 µM
SW-620 colon
  TGI: > 100 µM
T-47D breast
  TGI: > 100 µM
TK-10 renal
  TGI: > 100 µM
U251 CNS
  TGI: > 100 µM
UACC-257 melanoma
  TGI: > 100 µM
UACC-62 melanoma
  TGI: > 100 µM

## CC1(C)CNC(=O)C2(C=NC(C)(C)CNC(=O)C3(C=N1)CCCO3)CCCO2 (stereo unspecified)
786-0 renal
  TGI: > 10 µM
A498 renal
  TGI: > 10 µM
A549 NSCLC
  TGI: > 10 µM
ACHN renal
  TGI: > 10 µM
BT-549 breast
  TGI: > 10 µM
CAKI-1 renal
  TGI: > 10 µM
CCRF-CEM leukemia
  TGI: > 10 µM
COLO 205 colon
  TGI: > 10 µM
DU-145 prostate
  TGI: > 10 µM
EKVX NSCLC
  TGI: > 10 µM
HCC-2998 colon
  TGI: > 10 µM
HCT-116 colon
  TGI: > 10 µM
HCT-15 colon
  TGI: > 10 µM
HL-60(TB) leukemia
  TGI: > 10 µM
HOP-62 NSCLC
  TGI: > 10 µM
HOP-92 NSCLC
  TGI: > 10 µM
HS 578T breast
  TGI: > 10 µM
HT29 colon
  TGI: > 10 µM
IGROV1 ovarian
  TGI: > 10 µM
K-562 leukemia
  TGI: > 10 µM
KM12 colon
  TGI: > 10 µM
M14 melanoma
  TGI: > 10 µM
MALME-3M melanoma
  TGI: > 10 µM
MCF7 breast
  TGI: > 10 µM
MDA-MB-231 breast
  TGI: > 10 µM
MDA-MB-435
  TGI: > 10 µM
MDA-N
  TGI: > 10 µM
MOLT-4 leukemia
  TGI: > 10 µM
NCI-H23 lung
  TGI: > 10 µM
NCI-H522 lung
  TGI: > 10 µM
NCI/ADR-RES ovarian
  TGI: > 10 µM
OVCAR-3 ovarian
  TGI: > 10 µM
OVCAR-4 ovarian
  TGI: > 10 µM
OVCAR-8 ovarian
  TGI: > 10 µM
PC-3 prostate
  TGI: > 10 µM
RPMI-8226 leukemia
  TGI: > 10 µM
RXF 393 renal
  TGI: > 10 µM
SF-268 CNS
  TGI: > 10 µM
SF-295 CNS
  TGI: > 10 µM
SF-539 CNS
  TGI: > 10 µM
SK-MEL-28 melanoma
  TGI: > 10 µM
SK-MEL-5 melanoma
  TGI: > 10 µM
SK-OV-3 ovarian
  TGI: > 10 µM
SN12C renal
  TGI: > 10 µM
SNB-19 CNS
  TGI: > 10 µM
SNB-75 CNS
  TGI: > 10 µM
SR leukemia
  TGI: > 10 µM
SW-620 colon
  TGI: > 10 µM
T-47D breast
  TGI: > 10 µM
TK-10 renal
  TGI: > 10 µM
U251 CNS
  TGI: > 10 µM
UACC-257 melanoma
  TGI: > 10 µM
UACC-62 melanoma
  TGI: > 10 µM
